Data from PMC9322164, “Novel Neuroprotective Potential of Bunchosia armeniaca (Cav.) DC against Lipopolysaccharide Induced Alzheimer’s Disease in Mice” (Plants, 2022).

How the values were obtained:
[1] = ABTS cation radical decolorization assay; details: mean ± SD, n = 6
[2] = Ferric reducing antioxidant power (FRAP) assay; details: mean ± SD, n = 6
Procedure: Natural products’ ability to reduce metals is regarded as a key marker of their antioxidant properties. Spectroscopically, the quantity of ferric (Fe^3+) complex conversion to ferrous (Fe^2+) form is detected by the color change of the solution based on the compound’s ability for reduction. The increased reduction capability of the studied sample is shown by the higher absorbance of the reaction mixture. FRAP values of B. armeniaca extract and its fractions were recorded in (Table 2) and expressed as EC50 (µg/mL).
The FRAP technique was carried out in microplates with slight modifications as described by. Briefly, a fresh FRAP solution was prepared shortly before the reaction in a 10:1:1 v/v/v ratio, consisting of acetate buffer (300 mM, PH = 3.6), tripyridyltriazine (TPTZ, 10 mM) in HCl (40 mM), and FeCl3 (20 mM), respectively. […] The FRAP test measured the absorbance change generated by electron-donating antioxidants converting a colorless oxidized Fe^+3-TPTZ complex to a blue-colored Fe^+2 molecule in acidic conditions. Data are represented as mean ± SD.
FRAP assay data were determined by Microsoft Excel®. […] AChE inhibition activity was performed in triplicate. […] The difference was considered significant when p < 0.05.

[3] = DPPH radical scavenging assay; details: mean ± SD, n = 6
[4] = parameters: method as in earlier work; details: previous research ref 5; cited from earlier work
CYP2E1 = assay: Brain content of CYP2E1 (ELISA) in LPS-induced Alzheimer in mice; type: in vivo; details: LPS 250 µg/kg/day IP 7 days; compared to normal control
Procedure: (§1) Firstly, mice were anesthetized using an IP injection of ketamine at a dose of 80–100 mg/kg. After they achieved a deep anesthetic state, mice were sacrificed by decapitation. Each mouse’s brain was promptly dissected and washed with phosphate-buffered saline (PBS) to eliminate extra blood. Weighed pieces were homogenized in PBS with the MPW-120 homogenizer, Med Instruments, Poland, to obtain a 20% homogenate, then they were kept overnight at −20 °C. […] The supernatant was removed immediately and assayed for brain contents of NF-κB, IL-1β, CYP2E1, and GFAP. They were determined using an ELISA kit (SunLong Biotec Co., Ltd., Hangzhou, China).
(§2) Standards and samples were added to wells containing immobilized antibodies specific for […] NF-κB, IL-1β, CYP2E1, and GFAP and kept for 30 min of incubation at 37 °C. After washing, horseradish peroxidase-conjugated streptavidin was added to the wells, kept for 30 min of incubation at 37 °C, and then washed for a second time. The wells were filled with tetramethylbenzidine (TMB) substrate solution and kept for 15 min of incubation at 37 °C; a color was produced in proportion to the quantity of NF-κB, IL-1β, CYP2E1, and GFAP bound. A stop solution was added to the wells to terminate the color development, and color intensity was detected at 450 nm after 10 min [130].

GFAP = assay: Brain content of GFAP (ELISA) in LPS-induced Alzheimer in mice; type: in vivo; details: LPS 250 µg/kg/day IP 7 days; compared to normal control
Procedure: as §1, §2

NF-κB = assay: Brain content of NF-κB (ELISA) in LPS-induced Alzheimer in mice; type: in vivo; details: LPS 250 µg/kg/day IP 7 days; compared to normal control
Procedure: as §1, §2

IL-1β = assay: Brain content of IL-1β (ELISA) in LPS-induced Alzheimer in mice; type: in vivo; details: LPS 250 µg/kg/day IP 7 days; compared to normal control
Procedure: as §1, §2

[5] = system: LPS-induced Alzheimer in mice; assay: Y maze spontaneous alternation test in LPS-induced Alzheimer in mice; type: in vivo; details: LPS 250 µg/kg/day IP 7 days; compared to normal control
Procedure: Fifty male Swiss mice weighing 20–35 gm were chosen for the investigation. They were held in filter-top plastic cages under hygienic conditions, with 12-h light and 12-hour dark cycles and 50% humidity at 28 °C. Unnecessary disturbance of animals was avoided. Squeezing, pressure, and abrasive maneuvers were avoided when dealing with the animals. Throughout the experiment, mice were fed a standard pellet meal, and water was allowed ad libitum. The laboratory animal experiments were conducted to comply with the recommendations of the Guide for the Care and Use of Laboratory Animals of the National Research Centre, Egypt, and the National Institutes of Health (NIH No. 85:23 revised 1985) in accordance with the guidelines provided by the CPCSEA and the World Medical Association Declaration of Helsinki on Ethical Principles for Studies Involving Experimental Animals. […]
Y maze spontaneous alternation test was performed 24 h after the last treatment dose, according to [126]. […] One day later, the mouse was allowed eight minutes of movements while its motion was recorded. The letter of the mouse was recorded down every time it entered an arm with all of its limbs inside. […] The alternation percentage was determined using the formula below: Number of alternations/(Total arm entries −2) ∗ 100

mice brain = assay: Histopathological examination of mice brain (H&E); type: in vivo; details: LPS model, extracts 200 mg/kg/day oral 7 days
Procedure: Autopsy specimens were obtained from mice brains, divided into several groups and preserved in 10% formol saline for a day. Subsequently, rinsing with tap water, dehydration was achieved by alcohol serial dilutions (methyl, ethyl, and absolute ethyl alcohol). Samples were cleaned with xylene and immersed in paraffin for a day at 56 °C in a hot air oven. Paraffin beeswax tissue blocks were made using a sledge microtome and sectioned at a thickness of […].

## Cc1c(C)c2c(c(C)c1O)CCC(C)(C(=O)O)O2 (centres unmarked) [Trolox]
[1]
  ABTS Assay IC50: 22.56 ± 0.78 µg/mL
[2]
  FRAP Assay EC50: 96.97 ± 2.73 µg/mL
[3]
  DPPH Assay IC50: 24.42 ± 0.87 µg/mL

## O=C(O)c1cc(O)c(O)c(O)c1 [gallic acid]
[4]
  DPPH IC50: 3.6 µg/mL

## Lipopolysaccharide [LPS]
CYP2E1
  elevation of CYP2E1 brain content: 235%
GFAP
  elevation of GFAP brain expression: 276%
NF-κB
  increase of NF-κB in the brain: 309%
IL-1β
  increase of IL-1β in the brain: 193%
[5]
  decrease of Y-maze alteration: 58%
Mice brain
  histopathology of cerebellum: normal histological findings
  histopathology of cerebral cortex: nuclear pyknosis and neuronal degeneration with focal gliosis
  histopathology of fascia dentata and hilus in the hippocampus: nuclear pyknosis with degeneration
  histopathology of hippocampus subiculum: nuclear pyknosis and degeneration in some neurons
  histopathology of striatum: multiple focal eosinophilic plagues formation
